Assay results: ChEMBL document CHEMBL4818994, “Uncompetitive nanomolar dimeric indenoindole inhibitors of the human breast cancer resistance pump ABCG2” (Eur J Med Chem, 2021); call rule not given here

Assays:
[1] = target: T1, Broad substrate specificity ATP-binding cassette transporter ABCG2 (Homo sapiens, UniProt Q9UNQ0); assay: Inhibition of human ABCG2 transfected in human HEK293 cells assessed as inhibition of mitoxantrone efflux measured after 30 mins by FACS Calibur cytometric analysis; format: cell-based
T1 sequence (Q9UNQ0 whole entry): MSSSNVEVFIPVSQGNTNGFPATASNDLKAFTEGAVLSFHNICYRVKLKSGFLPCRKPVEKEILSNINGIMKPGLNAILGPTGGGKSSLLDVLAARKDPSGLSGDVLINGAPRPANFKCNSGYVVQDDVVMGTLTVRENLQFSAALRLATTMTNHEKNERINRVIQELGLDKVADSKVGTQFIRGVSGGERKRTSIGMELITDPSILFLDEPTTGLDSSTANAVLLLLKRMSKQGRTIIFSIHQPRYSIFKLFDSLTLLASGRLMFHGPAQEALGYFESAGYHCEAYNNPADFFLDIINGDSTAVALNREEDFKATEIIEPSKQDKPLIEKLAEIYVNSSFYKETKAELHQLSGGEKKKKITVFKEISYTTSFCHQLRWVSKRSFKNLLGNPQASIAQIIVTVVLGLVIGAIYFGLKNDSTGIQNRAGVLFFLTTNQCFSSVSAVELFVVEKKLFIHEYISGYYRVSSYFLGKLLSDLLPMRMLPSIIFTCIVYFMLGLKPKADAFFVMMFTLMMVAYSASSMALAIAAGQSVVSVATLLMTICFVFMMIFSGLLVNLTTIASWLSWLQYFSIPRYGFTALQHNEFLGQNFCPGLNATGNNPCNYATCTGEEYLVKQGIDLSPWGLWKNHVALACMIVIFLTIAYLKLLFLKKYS

ABCG2 [2] = assay: Therapeutic ratio of IG50 for growth inhibition of human HEK293 cells to IC50 for inhibition of human ABCG2 expressed in human HEK293 cells; format: toxicity, cell-based
ABCG2 [3] = assay: Therapeutic ratio of IG50 for growth inhibition of human HEK293 cells overexpressing human ABCG2 to IC50 for inhibition of human ABCG2 expressed in human HEK293 cells; format: toxicity, cell-based
[4] = target: T2, ATP-dependent translocase ABCB1 (Homo sapiens, UniProt P08183); assay: Inhibition of human P-gp1 transfected in mouse NIH3T3 cells assessed as inhibition of Calcein-AM efflux measured after 30 mins by FACS Calibur cytometric analysis; format: cell-based; conditions: nih3t3, 0.5 h
T2 sequence (P08183 whole entry): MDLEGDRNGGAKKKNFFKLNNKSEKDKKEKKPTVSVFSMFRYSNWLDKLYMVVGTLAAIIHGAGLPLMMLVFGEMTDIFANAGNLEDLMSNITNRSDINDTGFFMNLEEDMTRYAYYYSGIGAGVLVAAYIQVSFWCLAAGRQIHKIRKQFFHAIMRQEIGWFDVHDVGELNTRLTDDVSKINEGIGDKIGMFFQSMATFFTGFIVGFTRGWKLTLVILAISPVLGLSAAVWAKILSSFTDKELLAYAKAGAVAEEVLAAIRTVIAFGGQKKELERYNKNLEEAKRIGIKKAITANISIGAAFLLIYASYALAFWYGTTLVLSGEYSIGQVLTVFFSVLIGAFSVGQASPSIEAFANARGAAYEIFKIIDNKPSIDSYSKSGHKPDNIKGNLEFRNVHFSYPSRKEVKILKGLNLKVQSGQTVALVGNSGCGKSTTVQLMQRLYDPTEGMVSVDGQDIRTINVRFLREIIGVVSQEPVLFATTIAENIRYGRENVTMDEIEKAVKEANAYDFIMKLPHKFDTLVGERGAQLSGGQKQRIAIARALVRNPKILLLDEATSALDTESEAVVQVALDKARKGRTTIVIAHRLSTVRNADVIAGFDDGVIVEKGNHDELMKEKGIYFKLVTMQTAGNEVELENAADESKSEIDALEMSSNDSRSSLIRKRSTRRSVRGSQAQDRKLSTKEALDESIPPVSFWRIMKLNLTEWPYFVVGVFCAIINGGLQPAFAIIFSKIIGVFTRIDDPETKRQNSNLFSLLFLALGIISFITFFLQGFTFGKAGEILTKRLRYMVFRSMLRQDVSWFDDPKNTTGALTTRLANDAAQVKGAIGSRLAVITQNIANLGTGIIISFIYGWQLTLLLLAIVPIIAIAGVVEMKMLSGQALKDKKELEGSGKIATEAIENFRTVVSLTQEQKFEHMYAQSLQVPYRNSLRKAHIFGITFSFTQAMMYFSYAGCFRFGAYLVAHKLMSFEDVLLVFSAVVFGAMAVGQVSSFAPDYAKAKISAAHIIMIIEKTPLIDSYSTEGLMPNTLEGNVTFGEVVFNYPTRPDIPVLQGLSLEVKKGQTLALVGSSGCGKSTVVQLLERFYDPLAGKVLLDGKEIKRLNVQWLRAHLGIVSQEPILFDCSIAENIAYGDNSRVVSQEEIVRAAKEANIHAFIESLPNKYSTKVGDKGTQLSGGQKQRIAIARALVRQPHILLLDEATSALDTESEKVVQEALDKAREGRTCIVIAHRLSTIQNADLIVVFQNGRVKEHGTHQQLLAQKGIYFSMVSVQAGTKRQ

[5] = target: Multidrug resistance-associated protein 1 (Homo sapiens, UniProt P33527); assay: Inhibition of human MRP1 transfected in human HEK293 cells assessed as inhibition of Calcein-AM efflux measured after 30 mins by FACS Calibur cytometric analysis; format: cell-based; conditions: hek293, 0.5 h
Chain of Multidrug resistance-associated protein 1 (P33527 whole entry): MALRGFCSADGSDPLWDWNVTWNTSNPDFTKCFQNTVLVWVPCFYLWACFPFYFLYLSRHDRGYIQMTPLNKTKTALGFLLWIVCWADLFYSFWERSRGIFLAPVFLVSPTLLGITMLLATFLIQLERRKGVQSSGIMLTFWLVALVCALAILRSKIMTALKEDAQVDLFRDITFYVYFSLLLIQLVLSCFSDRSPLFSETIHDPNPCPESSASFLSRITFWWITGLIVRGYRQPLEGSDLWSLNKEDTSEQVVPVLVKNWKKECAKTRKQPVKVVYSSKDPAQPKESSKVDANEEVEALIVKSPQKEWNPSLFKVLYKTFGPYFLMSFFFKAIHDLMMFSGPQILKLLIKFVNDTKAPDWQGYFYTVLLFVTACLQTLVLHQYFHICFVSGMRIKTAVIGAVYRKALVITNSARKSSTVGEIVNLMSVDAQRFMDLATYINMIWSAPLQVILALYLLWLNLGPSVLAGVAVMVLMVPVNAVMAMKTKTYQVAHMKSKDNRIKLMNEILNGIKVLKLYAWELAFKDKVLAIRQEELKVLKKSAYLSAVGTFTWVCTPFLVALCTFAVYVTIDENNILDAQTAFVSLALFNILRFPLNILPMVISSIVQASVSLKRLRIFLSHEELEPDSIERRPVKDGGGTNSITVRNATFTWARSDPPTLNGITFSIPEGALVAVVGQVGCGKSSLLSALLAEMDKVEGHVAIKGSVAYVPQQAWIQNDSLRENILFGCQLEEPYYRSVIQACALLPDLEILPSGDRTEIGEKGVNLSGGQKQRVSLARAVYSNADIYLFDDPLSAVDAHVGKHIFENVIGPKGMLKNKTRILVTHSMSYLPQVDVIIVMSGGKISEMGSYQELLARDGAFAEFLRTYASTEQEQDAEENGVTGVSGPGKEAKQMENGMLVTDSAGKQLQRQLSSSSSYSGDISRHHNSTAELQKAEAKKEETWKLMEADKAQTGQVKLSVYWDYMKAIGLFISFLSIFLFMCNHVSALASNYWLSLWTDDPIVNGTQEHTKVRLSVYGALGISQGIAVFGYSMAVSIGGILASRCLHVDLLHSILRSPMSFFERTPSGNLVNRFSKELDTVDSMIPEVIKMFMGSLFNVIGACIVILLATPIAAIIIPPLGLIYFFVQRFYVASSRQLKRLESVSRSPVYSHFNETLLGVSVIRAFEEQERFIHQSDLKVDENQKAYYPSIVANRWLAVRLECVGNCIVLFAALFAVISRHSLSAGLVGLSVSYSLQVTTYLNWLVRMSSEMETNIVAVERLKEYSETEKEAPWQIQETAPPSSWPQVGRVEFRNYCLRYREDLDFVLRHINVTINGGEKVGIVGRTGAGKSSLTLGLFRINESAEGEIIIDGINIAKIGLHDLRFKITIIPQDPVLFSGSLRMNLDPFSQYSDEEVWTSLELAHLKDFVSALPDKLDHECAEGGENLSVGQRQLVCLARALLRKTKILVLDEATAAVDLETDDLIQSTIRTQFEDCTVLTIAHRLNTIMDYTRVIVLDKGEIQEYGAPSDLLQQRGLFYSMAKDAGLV

[6] = target: T1, Broad substrate specificity ATP-binding cassette transporter ABCG2; assay: Mixed inhibition of human ABCG2 transfected in human HEK293 cells assessed as Ki1 for inhibition of Hoechst33342 efflux measured after 30 mins by FACS Calibur cytometric analysis; format: cell-based
[7] = target: T1, Broad substrate specificity ATP-binding cassette transporter ABCG2; assay: Uncompetitive inhibition of human ABCG2 transfected in human HEK293 cells assessed as Ki2 for inhibition of mitoxantrone efflux measured after 30 mins by FACS Calibur cytometric analysis; format: cell-based
[8] = target: T1, Broad substrate specificity ATP-binding cassette transporter ABCG2; assay: Mixed inhibition of human ABCG2 transfected in human HEK293 cells assessed as Ki2 for inhibition of Hoechst33342 efflux measured after 30 mins by FACS Calibur cytometric analysis; format: cell-based
[9] = Growth inhibition of human HEK293 cells overexpressing human ABCG2 after 72 hrs by MTT assay; format: ADME, cell-based; conditions: read-out: IG50
[10] = Growth inhibition of human HEK293 cells after 72 hrs by MTT assay; format: cell-based; conditions: read-out: IG50
[11] = target: T2, ATP-dependent translocase ABCB1; assay: Inhibition of human P-gp1 transfected in mouse NIH3T3 cells assessed as inhibition of Rhodamine123 efflux measured after 30 mins by FACS Calibur cytometric analysis; format: cell-based; conditions: nih3t3, 0.5 h
[12] = target: T1, Broad substrate specificity ATP-binding cassette transporter ABCG2; assay: Mixed inhibition of human ABCG2 transfected in human HEK293 cells assessed as Ki2 for inhibition of mitoxantrone efflux measured after 30 mins by FACS Calibur cytometric analysis; format: cell-based
[13] = target: T1, Broad substrate specificity ATP-binding cassette transporter ABCG2; assay: Mixed inhibition of human ABCG2 transfected in human HEK293 cells assessed as Ki1 for inhibition of mitoxantrone efflux measured after 30 mins by FACS Calibur cytometric analysis; format: cell-based
[14] = target: T1, Broad substrate specificity ATP-binding cassette transporter ABCG2; assay: Non-competitive inhibition of human ABCG2 transfected in human HEK293 cells assessed as Ki2 for inhibition of mitoxantrone efflux measured after 30 mins by FACS Calibur cytometric analysis; format: cell-based

Row | Compound | IC50 [1] [nM] | selectivity ratio (ABCG2 [2]) | selectivity ratio (ABCG2 [3]) | inhibition (INH) [4] | inhibition (INH) [5] | GI50 at 72 h [9] [nM] | GI50 at 72 h [10] [nM] | further results
1 | COc1cccc(CCn2c3c(c4c(OCCCCCCCCCCOc5cccc6c5c5c(n6CCc6cccc(OC)c6)-c6ccccc6C5=O)cccc42)C(=O)c2ccccc2-3)c1 | > 10000 | – | – | – | – | – | – | –
2 | COc1cccc(CCn2c3c(c4c(OCCCCCCOc5cccc6c5c5c(n6CCc6cccc(OC)c6)-c6ccccc6C5=O)cccc42)C(=O)c2ccccc2-3)c1 | 27.4 | ≥ 70000 | ≥ 70000 | Not Active | Not Active | – | – | –
3 | COc1cccc(CCn2c3c(c4c(OCCCCOc5cccc6c5c5c(n6CCc6cccc(OC)c6)-c6ccccc6C5=O)cccc42)C(=O)c2ccccc2-3)c1 | 24.1 | 3300 | 2160 | Not Active | Not Active | 51800 | 79600 | Ki [6]: 113 nM; Ki [7]: 17 nM; Ki [8]: 29 nM
4 | CC1CC(=O)c2c3c(n(CCc4ccccc4)c2C1)-c1cc(OCCCCCCCCCCOc2ccc4c(c2)-c2c(c5c(n2CCc2ccccc2)CC(C)CC5=O)C4=O)ccc1C3=O (stereo unspecified) | > 10000 | – | – | – | – | – | – | –
5 | CC1CC(=O)c2c3c(n(CCc4ccccc4)c2C1)-c1cc(OCCCCOc2ccc4c(c2)-c2c(c5c(n2CCc2ccccc2)CC(C)CC5=O)C4=O)ccc1C3=O (stereo unspecified) | 867 | 126 | 126 | Not Active | Not Active | 109000 | 109000 | –
6 | COc1cccc(CCn2c3c(c4c(OCCOc5ccc6c(c5)-c5c(c7c(n5CCc5ccccc5)CC(C)CC7=O)C6=O)cccc42)C(=O)c2ccccc2-3)c1 (stereo unspecified) | 68 | 3250 | 3250 | – | – | 221000 | 221000 | inhibition (INH) [11]: Active
7 | COc1cccc(CCn2c3c(c4c(OCCCCCCCCOc5cccc6c5c5c(n6CCc6cccc(OC)c6)-c6ccccc6C5=O)cccc42)C(=O)c2ccccc2-3)c1 | > 10000 | – | – | – | – | – | – | –
8 | CC1CC(=O)c2c3c(n(CCc4ccccc4)c2C1)-c1cc(OCCCCCCCCOc2ccc4c(c2)-c2c(c5c(n2CCc2ccccc2)CC(C)CC5=O)C4=O)ccc1C3=O (stereo unspecified) | > 10000 | – | – | – | – | – | – | –
9 | COc1cccc(CCn2c3c(c4c(OCCCCCCCCCCCCOc5ccc6c(c5)-c5c(c7c(n5CCc5ccccc5)CC(C)CC7=O)C6=O)cccc42)C(=O)c2ccccc2-3)c1 (stereo unspecified) | > 10000 | – | – | – | – | – | – | –
10 | COc1cccc(CCn2c3c(c4c(O)cccc42)C(=O)c2ccccc2-3)c1 | 732 | – | – | – | – | – | – | Ki [12]: 294 nM; Ki [13]: 188 nM; Ki [14]: 250 nM
11 | COc1cccc(CCn2c3c(c4c(OCCCCCCCCCCOc5ccc6c(c5)-c5c(c7c(n5CCc5ccccc5)CC(C)CC7=O)C6=O)cccc42)C(=O)c2ccccc2-3)c1 (stereo unspecified) | > 10000 | – | – | – | – | – | – | –
12 | COc1cccc(CCn2c3c(c4c(OCCCCCCCCCCCCOc5cccc6c5c5c(n6CCc6cccc(OC)c6)-c6ccccc6C5=O)cccc42)C(=O)c2ccccc2-3)c1 | > 10000 | – | – | – | – | – | – | –
13 | COc1cccc(CCn2c3c(c4c(OCCCCOc5ccc6c(c5)-c5c(c7c(n5CCc5ccccc5)CC(C)CC7=O)C6=O)cccc42)C(=O)c2ccccc2-3)c1 (stereo unspecified) | 133 | 2230 | 2230 | Not Active | Not Active | 295000 | 295000 | –
14 | CC1CC(=O)c2c3c(n(CCc4ccccc4)c2C1)-c1cc(OCCCCCCCCCCCCOc2ccc4c(c2)-c2c(c5c(n2CCc2ccccc2)CC(C)CC5=O)C4=O)ccc1C3=O (stereo unspecified) | > 10000 | – | – | – | – | – | – | –
15 | CC1CC(=O)c2c3c(n(CCc4ccccc4)c2C1)-c1ccccc1C3=O (stereo unspecified) | 768 | – | – | – | – | – | – | Ki [12]: 843 nM; Ki [13]: 323 nM
16 | COc1cccc(CCn2c3c(c4c(OCCOc5cccc6c5c5c(n6CCc6cccc(OC)c6)-c6ccccc6C5=O)cccc42)C(=O)c2ccccc2-3)c1 | 38.4 | ≥ 2630 | – | Not Active | Not Active | > 100000 | 917000 | –
17 | COc1cccc(CCn2c3c(c4c(OCCCCCCCCOc5ccc6c(c5)-c5c(c7c(n5CCc5ccccc5)CC(C)CC7=O)C6=O)cccc42)C(=O)c2ccccc2-3)c1 (stereo unspecified) | 389 | > 52 | > 52 | Not Active | Not Active | > 20000 | > 20000 | –
18 | CC1CC(=O)c2c3c(n(CCc4ccccc4)c2C1)-c1cc(OCCCCCCOc2ccc4c(c2)-c2c(c5c(n2CCc2ccccc2)CC(C)CC5=O)C4=O)ccc1C3=O (stereo unspecified) | > 10000 | – | – | – | – | – | – | –
19 | COc1cccc(CCn2c3c(c4c(OCCCCCCOc5ccc6c(c5)-c5c(c7c(n5CCc5ccccc5)CC(C)CC7=O)C6=O)cccc42)C(=O)c2ccccc2-3)c1 (stereo unspecified) | 32.6 | > 3070 | > 3070 | Not Active | Not Active | > 100000 | > 100000 | Ki [7]: 38 nM; Ki [12]: 42 nM; Ki [13]: 192 nM
20 | CC1CC(=O)c2c3c(n(CCc4ccccc4)c2C1)-c1cc(OCCOc2ccc4c(c2)-c2c(c5c(n2CCc2ccccc2)CC(C)CC5=O)C4=O)ccc1C3=O (stereo unspecified) | 319 | 758 | 758 | Not Active | Not Active | 242000 | 242000 | –
